Read-outs that look alike come from different tables or passages of the source.
Tests used:
Assay type in all cases: cell-based
[1] = test system: Escherichia coli (E. coli—ATCC #8739); assay: Synergy test, microtiter plate high resolution MIC assay, bacterium in M9GY medium; set-up: key to SI (synergy index): SI = Qa/QA + Qb/QB; >1 antagonism, lower SI = greater synergy; Qa (First Component A) / Qb (Second Component B): unit: ppm; settings: for MIC: Escherichia coli
Procedure: (§1) When the sum of Qa/QA and Qb/QB is greater than one, antagonism is indicated. […] The lower the SI, the greater the synergy shown by that particular mixture. The minimum inhibitory concentration (MIC) of a microbicide is the lowest concentration tested under a specific set of conditions that prevents the growth of added microorganisms.
(§2) Synergy tests were conducted using standard microtiter plate assays with media designed for optimal growth of the test microorganism. Minimal salt medium supplemented with 0.2% glucose and 0.1% yeast extract (M9GY medium) was used for testing bacteria; Potato Dextrose Broth (PDB medium) was used for testing yeast and mold. In this method, a wide range of combinations of microbicides and other personal care raw materials was tested by conducting high resolution MIC assays in the presence of various concentrations of BBIT or MBIT. High resolution MICs were determined by adding varying amounts of microbicide to one column of a microtitre plate and doing subsequent […] dilutions using an automated liquid handling system to obtain a series of endpoints ranging from 2 ppm to 10,000 ppm active ingredient.
(§3) The bacteria were used at a concentration of about 5 ×10^6 bacteria per mL and the yeast and mold at 5×10^5 fungi per mL. These microorganisms are representative of natural contaminants in many consumer and industrial applications. […] (yeast and mold) or 30° C. (bacteria).
(§4) In each test, First Component (A) was BBIT and the Second Component (B) was the other commercial microbicide.
(§5) In each test, First Component (A) was MBIT and the Second Component (B) was the other commercial microbicide.

[2] = test system: Candida albicans (C. albicans—ATCC 10231); assay: Synergy test, microtiter plate high resolution MIC assay, yeast in PDB medium; set-up: key to SI (synergy index): SI = Qa/QA + Qb/QB; >1 antagonism, lower SI = greater synergy; Qb (Second Component B) / Qa (First Component A): unit: ppm; settings: for MIC: Candida albicans
Procedure: as §1, §2, §3, §4, §5

[3] = test system: Aspergillus niger (A. niger—ATCC 16404); assay: Synergy test, microtiter plate high resolution MIC assay, mold in PDB medium; set-up: key to SI (synergy index): SI = Qa/QA + Qb/QB; >1 antagonism, lower SI = greater synergy; Qb (Second Component B) / Qa (First Component A): unit: ppm; settings: for MIC: Aspergillus niger
Procedure: as §1, §2, §3, §4, §5

[4] = A=MBIT, B=Benzyl alcohol, E. coli 8739 - M9GY, 24 hours
[5] = A=MBIT, B=Benzyl alcohol, C. albicans 10231 - PDB, 48 hours
[6] = A=MBIT, B=Benzyl alcohol, A. niger 16404 - PDB, 4 days
[7] = C. albicans 10231, PDB, 24 hours
[8] = C. albicans 10231, PDB, 24 hours, alone where Qa = 0, otherwise in the mixture
[9] = A=MBIT, B=DMDM Hydantoin (DMDMH), E. coli 8739 - M9GY, 24 hours
[10] = A=MBIT, B=DMDM Hydantoin (DMDMH), C. albicans 10231 - PDB, 24 hours
[11] = A=MBIT, B=DMDM Hydantoin (DMDMH), A. niger 16404 - PDB, 3 days
[12] = C. albicans 10231, PDB, 48 hours
[13] = A=MBIT, B=Benzisothiazolinone (BIT), E. coli 8739 - M9GY, 24 hours
[14] = A=MBIT, B=Benzisothiazolinone (BIT), C. albicans 10231 - PDB, 48 hours
[15] = A. niger 16404, PDB, 7 days, 25° C.
[16] = A=MBIT, B=Benzisothiazolinone (BIT), A. niger 16404 - PDB, 7 days
[17] = E. coli 8739, M9GY, 24 hours, alone where Qa = 0, otherwise in the mixture
[18] = A=MBIT, B=Benzalkonium chloride (Hyamine 3500), E. coli 8739 - M9GY, 24 hours
[19] = A=MBIT, B=Benzalkonium chloride (Hyamine 3500), C. albicans 10231 - PDB, 24 hours
[20] = A=MBIT, B=Benzalkonium chloride (Hyamine 3500), A. niger 16404 - PDB, 4 days

Molecule: OCc1ccccc1 [Benzyl alcohol]
- Qb (Second Component B) [1, 4]: 5000
- SI (synergy index) [1, 4]: 1.00
- MIC ([1]; ATCC8739, E. coli 8739, M9GY, 24 hours, 30° C., read-out: MIC of the component acting alone (QA / QB)): 2000 µg/mL
- Qb (Second Component B) [2, 5]: 4000
- SI (synergy index) [2, 5]: 1.00
- MIC ([2]; ATCC10231, C. albicans 10231, PDB, 48 hours, 25° C., read-out: MIC of the component acting alone (QA / QB)): 3000 µg/mL
- Qb (Second Component B) [3, 6]: 6000
- SI (synergy index) [3, 6]: 1.00
- MIC ([3]; ATCC16404, 72 h, A. niger 16404, PDB, 3 days, 25° C., read-out: MIC of the component acting alone (QA / QB)): 5000 µg/mL

Molecule: OCCCCO [Butylene glycol]
- Qb (Second Component B) [1]: 20000
- SI (synergy index) [1]: 1.00
- MIC ([1]; ATCC8739, 48 h, read-out: MIC of the component acting alone (QA / QB)): 20000 µg/mL
- Qb (Second Component B) [2]: 20000
- SI (synergy index) [2]: 1.00
- MIC ([2]; ATCC10231, 24 h, read-out: MIC of the component acting alone (QA / QB)): 20000 µg/mL
- Qb (Second Component B) [3]: 10000
- SI (synergy index) [3]: 1.00
- MIC ([3]; ATCC16404, 72 h, read-out: MIC of the component acting alone (QA / QB)): 10000 µg/mL

Molecule: cocamidopropyl PG-dimonium chloride phosphate
- SI (synergy index) ([1]; E. coli 8739, M9GY, 48 hours): 1.00
- Qb (concentration of second component producing the end point, MIC) ([1]; E. coli 8739, M9GY, 48 hours, alone where Qa = 0, otherwise in the mixture): 100 ppm
- SI ([1]; E. coli 8739 - M9GY, 72 hours, BBIT with Phospholipid PTC): 1.00
- SI (synergy index) [2, 7]: 1.00
- Qb (concentration of second component producing the end point, MIC) [2, 8]: 1000 ppm
- SI ([2]; C. albicans 10231 - PDB, 24 hours, BBIT with Phospholipid PTC): 1.00
- SI (synergy index) ([3]; A. niger 16404, PDB, 4 days): 1.00
- Qb (concentration of second component producing the end point, MIC) ([3]; A. niger 16404, PDB, 4 days, alone where Qa = 0, otherwise in the mixture): 1000 ppm
- SI ([3]; A. niger 16404 - PDB, 3 days, BBIT with Phospholipid PTC): 1.00

Molecule: CC1(C)C(=O)N(CO)C(=O)N1CO [DMDM Hydantoin, 1,3-dimethylol-5,5-dimethylhydantoin]
- Qb (Second Component B) [1, 9]: 50
- SI (synergy index) [1, 9]: 1.00
- SI ([1]; E. coli 8739 - M9GY, 72 hours, BBIT + DMDMH): 1.00
- Qb (Second Component B = DMDMH) ([1]; E. coli 8739 - M9GY, 72 hours, DMDMH alone (Qa 0) or in mixture with BBIT): 200
- Qb (Second Component B) [2, 10]: 3000
- SI (synergy index) [2, 10]: 1.00
- SI ([2]; C. albicans 10231 - PDB, 24 hours, BBIT + DMDMH): 1.00
- Qb (Second Component B = DMDMH) ([2]; C. albicans 10231 - PDB, 24 hours, DMDMH alone (Qa 0) or in mixture with BBIT): 3000
- SI ([3]; A. niger 16404 - PDB, 7 days, BBIT + DMDMH): 1.00
- Qb (Second Component B = DMDMH) ([3]; A. niger 16404 - PDB, 7 days, DMDMH alone (Qa 0) or in mixture with BBIT): 1000
- Qb (Second Component B) [3, 11]: 1000
- SI (synergy index) [3, 11]: 1.00

Molecule: COC(=O)c1ccc(O)cc1 [Methylparaben]
- SI (synergy index) ([1]; E. coli 8739, M9GY, 24 hours): 1.00
- SI ([1]; E. coli 8739 - M9GY, 72 hours, BBIT with Methylparaben): 1.00
- MIC ([1]; ATCC8739, E. coli 8739, M9GY, 24 hours, alone where Qa = 0, otherwise in the mixture, read-out: Qb (concentration of second component producing the end point, MIC)): 2000 µg/mL
- SI (synergy index) [2, 12]: 1.00
- SI ([2]; C. albicans 10231 - PDB, 24 hours, BBIT with Methylparaben): 1.00
- MIC ([2]; ATCC10231, C. albicans 10231, PDB, 48 hours, alone where Qa = 0, otherwise in the mixture, read-out: Qb (concentration of second component producing the end point, MIC)): 2000 µg/mL
- SI (synergy index) ([3]; A. niger 16404, PDB, 7 days): 1.00
- SI ([3]; A. niger 16404 - PDB, 3 days, BBIT with Methylparaben): 1.00
- MIC ([3]; ATCC16404, 168 h, A. niger 16404, PDB, 7 days, alone where Qa = 0, otherwise in the mixture, read-out: Qb (concentration of second component producing the end point, MIC)): 800 µg/mL

Molecule: ClC=CC[N+]12CN3CN(CN(C3)C1)C2.[Cl-] [Quaternium-15, 1-(3-chloroallyl)-3,5,7-triaza-1-azoniaadamantane chloride]
- SI (synergy index) ([1]; E. coli 8739, M9GY, 24 hours): 1.00
- SI ([1]; E. coli 8739 - M9GY, 72 hours, BBIT with Quaternium-15): 1.00
- MIC ([1]; ATCC8739, 24 h, read-out: Qb (concentration of second component producing the end point, MIC)): 50 µg/mL
- SI (synergy index) [2, 7]: 1.00
- SI ([2]; C. albicans 10231 - PDB, 24 hours, BBIT with Quaternium-15): 1.00
- MIC ([2]; ATCC10231, 24 h, read-out: Qb (concentration of second component producing the end point, MIC)): 500 µg/mL
- SI (synergy index) ([3]; A. niger 16404, PDB, 3 days): 1.00
- SI ([3]; A. niger 16404 - PDB, 4 days, BBIT with Quaternium-15): 1.00
- MIC ([3]; ATCC16404, 72 h, read-out: Qb (concentration of second component producing the end point, MIC)): 3000 µg/mL

Molecule: O=c1[nH]sc2ccccc12 [Benzisothiazolinone, 1,2-benzisothiazolin-3-one]
- Qb (Second Component B) [1, 13]: 20
- SI (synergy index) [1, 13]: 1.00
- MIC of the component acting alone (QA / QB) ([1]; E. coli 8739, M9GY, 72 hours, 30° C.): 8 ppm
- Qb (Second Component B) [2, 14]: 30
- SI (synergy index) [2, 14]: 1.00
- MIC of the component acting alone (QA / QB) ([2]; C. albicans 10231, PDB, 48 hours, 25° C.): 30 ppm
- MIC of the component acting alone (QA / QB) [3, 15]: 100 ppm
- Qb (Second Component B) [3, 16]: 300
- SI (synergy index) [3, 16]: 1.00

Molecule: O=C([O-])c1ccccc1.[Na+] [Sodium benzoate]
- SI (synergy index) ([1]; E. coli 8739, M9GY, 24 hours): 1.00
- Qb (concentration of second component producing the end point, MIC) [1, 17]: 10000 ppm
- SI ([1]; E. coli 8739 - M9GY, 24 hours, BBIT with Sodium benzoate): 1.00
- SI (synergy index) [2, 12]: 1.00
- Qb (concentration of second component producing the end point, MIC) ([2]; C. albicans 10231, PDB, 48 hours, alone where Qa = 0, otherwise in the mixture): 2000 ppm
- SI ([2]; C. albicans 10231 - PDB, 48 hours, BBIT with Sodium benzoate): 1.00
- SI (synergy index) ([3]; A. niger 16404, PDB, 7 days): 1.00
- Qb (concentration of second component producing the end point, MIC) ([3]; A. niger 16404, PDB, 7 days, alone where Qa = 0, otherwise in the mixture): 10000 ppm
- SI ([3]; A. niger 16404 - PDB, 7 days, BBIT with Sodium benzoate): 1.00

Molecule: Benzalkonium chloride
- Qb (Second Component B) [1, 18]: 10
- SI (synergy index) [1, 18]: 1.00
- MIC of the component acting alone (QA / QB) ([1]; E. coli 8739, M9GY, 48 hours, 30° C.): 3 ppm
- Qb (Second Component B) [2, 19]: 60
- SI (synergy index) [2, 19]: 1.00
- MIC of the component acting alone (QA / QB) ([2]; C. albicans 10231, PDB, 24 hours, 25° C.): 60 ppm
- MIC of the component acting alone (QA / QB) [3, 15]: 200 ppm
- Qb (Second Component B) [3, 20]: 200
- SI (synergy index) [3, 20]: 1.00

Molecule: N=C(N)c1ccc(OCCCCCCOc2ccc(C(=N)N)cc2)cc1.O=S(=O)(O)CCO.O=S(=O)(O)CCO [Hexamidine diisethionate]
- SI (synergy index) ([1]; E. coli 8739, M9GY, 24 hours): 1.00
- Qb (concentration of second component producing the end point, MIC) [1, 17]: 8 ppm
- SI ([1]; E. coli 8739 - M9GY, 48 hours, BBIT + hexamidine diisethionate): 1.00
- Qb (Second Component B = Hexamidine diisethionate) ([1]; E. coli 8739 - M9GY, 48 hours, hexamidine diisethionate alone (Qa 0) or in mixture with BBIT): 100
- SI (synergy index) [2, 7]: 1.00
- Qb (concentration of second component producing the end point, MIC) [2, 8]: 10 ppm
- SI ([2]; C. albicans 10231 - PDB, 24 hours, BBIT + hexamidine diisethionate): 1.00
- Qb (Second Component B = Hexamidine diisethionate) ([2]; C. albicans 10231 - PDB, 24 hours, hexamidine diisethionate alone (Qa 0) or in mixture with BBIT): 10
